Experimental data published in patent publication US20040067593A1, “Electron paramagnetic resonance method for diagnosis of active nephritis” (priority 2000, published 2004).

How the values were obtained:
Solubility of spin trap = format: physicochemical
[1] = Effect of sulphite on the EPR signal of the DBNBS radical cation (DBNBS reacted with plasma or urine); parameters: species or system human
Protocol: The characteristic spectrum of DBNBS-SO3^●− was a 9 line signal with an aN=1.32 mT and aH=0.06 mT (FIG. 8). This was obtained by reacting DBNBS with hydrogen peroxide and horseradish peroxidase. The addition of 10 mM sulphite to the reaction mixture caused the signal to increase by over 100 fold in intensity. The signal could also be obtained by reacting DBNBS with sulphite alone. However, when the DBNBS was reacted with the plasma of patients with renal failure and the urine from a normal individual, only the 3 line signal with an aN=1.32 mT was seen (FIGS. 7 & 9, respectively). The hydrogen hyperfine splitting seen in the spectrum of DBNBS-SO3^●− was absent. […] Therefore, we confirmed that DBNBS-SO3^●− and the DBNBS radical cation generated by renal patients' plasma or normal urine were completely different radicals.
Addition of sulphite to the mixture of DBNBS and plasma or urine decreased the signal height of the DBNBS radical cation. This could affect the determination of the oxidant in biological samples if there was sulphite contamination in the DBNBS preparation or endogenous sulphite in the biological sample itself. Therefore the dose response effect on addition of sulphite to the reaction mixture was investigated. […]

Row | SMILES | solubility compared with DBNBS (Solubility of spin trap) | reduction in the signal height of the DBNBS radical cation ([1]; 0.08 mM of sulphite in the reaction mixture) [%] | reduction in the signal height of the DBNBS radical cation ([1]; final concentration of 0.4 mM sulphite in the reaction mixture) [%]
1 | O=Nc1c(Cl)cc(S(=O)(=O)O)cc1Cl [DCNBS, 3,5-dichloro-4-nitrosobenzene sulphonate] | better solubility | – | –
2 | O=S([O-])[O-].[K+].[K+] [sulphite, dipotassium sulphite] | – | 1.4 | 6.1
